# Assay: In-use stability test of FPD, commercial capsules in opened blister, 40° C. and 75% Rh
# Type: physicochemical
# Conditions: conclusion of tests S1-5 and HBS1-3
# Method: (§1) From the blister holding 5 capsules one capsule was withdrawn and the remaining 4 capsules were put 4 days into 40° C. and 75% Rh. The blister containing the 4 capsules was then put in an exicator for 2 h before tests were performed. The test was performed with 4 kPa pressure drop over the […]® at room temperature and laboratory ambient conditions.
# as §1, with “put 13” for “put 4”
# as §1, with “put 21” for “put 4”
compound,measurement,value
C[N+]1(C)[C@@H]2C[C@@H](OC(=O)C(O)(c3cccs3)c3cccs3)C[C@H]1[C@@H]1O[C@@H]12 [tiotropium],Sensitivity of FPD to moisture,extremely sensitive to moisture

# From patent US20090188496A1, “INHALABLE TIOTROPIUM AND CONTAINER THEREFOR” (Boehringer Ingelheim International GmbH, priority 2003, published 2009)
